Patent US20070099996A1, “Pharmaceutical compositions of acitretin” (priority 2003, published 2007)

Experiments:
[1] = cited from earlier work
[2] = Comparative particle size distribution; type: physicochemical
Description: Comparative particle size distribution of unmilled acitretin, air-jet milled acitretin, oil-milled and wet milled solid dispersion of acitretin.

| SMILES | Solubility in water [1] | Particle size D10 [2] [microns] | Particle size D50 [2] [microns] | Particle size D90 [2] [microns] |
| --- | --- | --- | --- | --- |
| COc1cc(C)c(/C=C/C(C)=C/C=C/C(C)=C/C(=O)O)c(C)c1C [Acitretin] | practically insoluble |  |  |  |
| COc1cc(C)c(/C=C/C(C)=C/C=C/C(C)=C/C(=O)O)c(C)c1C [Air-jet milled acitretin, acitretin] |  | 2.13 | 5.51 | 14.48 |
| COc1cc(C)c(/C=C/C(C)=C/C=C/C(C)=C/C(=O)O)c(C)c1C [Unmilled acitretin, acitretin] |  | 11.14 | 39.59 | 105.0 |
